tested on: human embryonic stem cell derived neural stem cells (NSCs); experiment: Neural stem cell proliferation assay (neurogenesis assay); format: cell-based; conditions: Homo sapiens, Neural stem cell, 96 h; Table 1, novel compounds; concentration at which 150% activity of control (100%) is reached; ATP levels (CellTiterGlo) after 4 days incubation
How it was run: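 NSCs derived from human ES cells by dual SMAD inhibition, seeded on polyornithin/laminin, dosed 4 h later (11 points, 8 μM to 8 nM). After 4 days at 37° C, ATP luminescence read; response = compound/medium control ×100, EC150 = concentration giving 150% of control.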

Compound | EC (150% of control)
CC(NC(=O)c1ccc2cncc(-c3cccc(OCC(F)(F)F)c3)c2n1)C(C)(C)O (centres unmarked) [Example 164, N-(3-Hydroxy-3-methylbutan-2-yl)-8-(3-(2,2,2-trifluoroethoxyl)phenyl)-1,6-naphthyridine-2-carboxamide] | 0.76 µM
CS(=O)(=O)c1ccc(CNC(=O)c2ccc3cncc(-c4ccccc4F)c3n2)cc1 [Example 112, 8-(2-Fluorophenyl)-N-(4-(methylsulfonyl)benzyl)-1,6-naphthyridine-2-carboxamide] | 0.25 µM
CC(NC(=O)c1ccc2cncc(-c3ccc(F)c(F)c3)c2n1)c1ccc(S(C)(=O)=O)cc1 (centres unmarked) [Example 111, 8-(3,4-Difluorophenyl)-N-(1-(4-(methylsulfonyl)phenyl)ethyl)-1,6-naphthyridine-2-carboxamide] | 0.3 µM
O=C(NCC(F)(F)F)c1ccc2cncc(-c3ccc(F)cc3)c2n1 [Example 124, 8-(4-Fluorophenyl)-N-(2,2,2-trifluoroethyl)-1,6-naphthyridine-2-carboxamide] | 0.07 µM
O=C(c1ccc2cncc(-c3ccc(Cl)cc3F)c2n1)N1CCC(O)C1 (centres unmarked) [Example 130, (8-(4-Chloro-2-fluorophenyl)-1,6-naphthyridin-2-yl)(3-hydroxypyrrolidin-1-yl)methanone] | 0.13 µM

Source: patent US9657014B2, “Substituted 1,6-naphthyridines” (Hoffmann-La Roche Inc., priority 2012, dated 2017)
